We go through two molecules from patent publication US12410419B2, “Use of enzyme that cleaves both alpha- and beta- 1,4-glycosidic bonds” (Korea University Research and Business Foundation, priority 2019, dated 2025).

The test system of series [1] is AlfB bacterial fucosidase, L. casei. More on the design: Vmax: unit not given here. The conditions noted are these: Table 1; Rodriguez-Diaz 2011; cited from earlier work.
The subject of series [2] is TM0306 bacterial fucosidase, T. maritima. As to conditions: Table 1, Sulzenbacher 2004, cited from earlier work.
In series [3] the test system is AlfC bacterial fucosidase, L. casei. Also on record: Vmax: unit not given here. The conditions noted are these: Table 1; Rodriguez-Diaz 2011; cited from earlier work.
Series [4] has as its target Vibrio sp. strain EJY3 α-L-fucosidase VeFUC (VEJY3_11310, UniProt H2IHW9.1), wild type, SEQ ID NO: 1 (Vibrio sp. EJY3, UniProt A0ACD6BAZ0). In words: Kinetic parameters of VeFUC for pNP-α-L-Fuc. As to conditions: Table 1, Present invention. Format: biochemical. How it is done: Genomic DNA of Vibrio sp. strain EJY3 for cloning a gene encoding VeFUC was prepared as follows: Vibrio sp. strain EJY3 was cultured in a minimum medium consisting of 23 g/L Instant Ocean Sea Salt (Aquarium Systems, Mentor, OH, USA), 50 mM Tris-HCl (pH 7.4), 2 g/L glucose, 1 g/L yeast extract and 0.5 g/L ammonium chloride at 303 K and 200 rpm for 18 hours. The genomic DNA was extracted from a culture using the DNeasy Blood & Tissue Kit (Qiagen, Valencia, CA, USA) according to the manufacturer's protocol. A target gene, VEJY3_11310 (UniProt accession no. H2IHW9.1) was amplified by PCR using the following primers. The underlined parts are BamHI and XhoI restriction enzyme sites; […]
(§1) Recombinant E. coli loaded with the pET21a-VeFUC plasmid was grown at 310 K and 200 rpm until an absorbance measured at 600 nm in a culture Luria-Bertani (LB) broth containing 100 mg L^−1 ampicillin reached 0.6. […] The concentrated enzyme solution was analyzed by bicinchoninic acid (BCA) protein analysis (Thermo Fisher Scientific, Waltham, MA) and 12% (w/v) SDS-PAGE gel electrophoresis to determine the concentration, size and purity of the target protein.
(§2) The reaction was terminated by adding 500 μl of 1 M sodium carbonate thereto, and the absorbance of the reaction mixture was quantified by spectrophotometry at 405 nm. […]

The subject of series [5] is XCC2888 bacterial fucosidase, Xanthomonas campestris. As to conditions: Table 1, Dupoiron 2015, cited from earlier work.
In series [6] the test system is aLfuk1 bacterial fucosidase. The conditions noted are these: Table 1; Benesova 2013; cited from earlier work.
Series [7] deals with TfFuc1 bacterial fucosidase, Tannerella forsythia. The conditions noted are these: Table 1; Megson 2015; cited from earlier work.
Series [8] concerns BT_2970 bacterial fucosidase, B. subtilis thetaiotaomicron. The conditions noted are these: Table 1; Sakurama 2012; cited from earlier work.
Series [9] concerns BT_2970 bacterial fucosidase. As to conditions: Table 1; Sakurama 2012; cited from earlier work.
Series [10] deals with AlfA bacterial fucosidase, Lactobacillus casei. As to conditions: Table 1; Rodriguez-Diaz 2011; cited from earlier work.
Series [11] relates to Alf1_Wf bacterial fucosidase, Wenyingzhuangia fucanilytica. As to conditions: Table 1; Dong 2017; cited from earlier work.
Substrate in series [12]: C[C@@H]1O[C@@H](Oc2ccc([N+](=O)[O-])cc2)[C@@H](O)[C@H](O)[C@@H]1O
The experiment in a line: Kinetic parameters of VeFUC for pNP-α-L-Fuc. The series is classed as biochemical, Vibrio sp. strain EJY3. As to conditions: other: text, 313 K, 10 mM sodium acetate buffer (pH 6.0), Lineweaver-Burk plot, 40.0 °C. How it is done:
Genomic DNA of Vibrio sp. strain EJY3 for cloning a gene encoding VeFUC was prepared as follows: Vibrio sp. strain EJY3 was cultured in a minimum medium consisting of 23 g/L Instant Ocean Sea Salt (Aquarium Systems, Mentor, OH, USA), 50 mM Tris-HCl (pH 7.4), 2 g/L glucose, 1 g/L yeast extract and 0.5 g/L ammonium chloride at 303 K and 200 rpm for 18 hours. The genomic DNA was extracted from a culture using the DNeasy Blood & Tissue Kit (Qiagen, Valencia, CA, USA) according to the manufacturer's protocol. A target gene, VEJY3_11310 (UniProt accession no. H2IHW9.1) was amplified by PCR using the following primers. The underlined parts are BamHI and XhoI restriction enzyme sites;
Recombinant proteins were purified using a HisTrap column (GE Healthcare, Piscataway, NJ, USA) by adding sequences encoding 6 histidines to the reverse primer. A PCR product was treated with BamHI and XhoI restriction enzymes and subsequently ligated to a pET-21a plasmid (Novagen, Darmstadt, Germany) to construct a PET21a-VeFUC plasmid.
as §1, §2
In order to measure the kinetic parameters of VeFUC for pNP-α-L-Fuc, enzymatic reactions were performed at different concentrations of pNP-α-L-Fuc in a range of 0.109 to 0.875 mM under the same conditions described above. Vmax, Km and kcat, which are enzyme kinetic parameters of VeFUC were measured from a Lineweaver-Burk plot. […]

Take `C[C@@H]1O[C@@H](Oc2ccc([N+](=O)[O-])cc2)[C@@H](O)[C@H](O)[C@@H]1O` [pNP-α-L-Fuc, p-nitrophenyl-α-L-fucopyranoside]: the Km in [1] was 2900 µM; in series [2], 34 ± 2 µM; in series [3] it was 5300 µM; in series [5], 700 ± 100 µM; in series [6] it was 440 ± 20 µM; in series [7], 670 ± 200 µM. Besides, the Km in [8] was 1500 µM; in series [10], 270 µM; in series [11], 3300 ± 420 µM. For the same molecule, the Vmax in [1] is given as 6; in series [3], 22.2; in [4] it was 24.8 ± 0.9; in [7] it was 20.4; in [11] it was 4.75. In addition, the Kcat is 5.4 ± 0.2 in series [2] (in 1/s); 4.81 ± 1.8 in [4] (in 1/s); 6.1 ± 2.0 in series [5] (in 1/s); 1.3 s⁻¹ in [9]; 5.44 s⁻¹ in [11].

B1: Vibrio sp. strain EJY3 α-L-fucosidase VeFUC (VEJY3_11310, UniProt H2IHW9.1), wild type, SEQ ID NO: 1 (Vibrio sp. EJY3) (protein)
chain: MTKPTAGELTGTSSQATSQLDNRNAFTGVSKQGLNRWKKNTFGMFIHWGLYCHRDLAGYYQGQYYDIISEWLPHFARIPMRDYKEYASDFNPSEFDADQVTALAKTAGMNYMVVTAKHHDGFAMYHSPSHPFNITDATPFKRDPVAELSQSCRHKDLDFGLYYSHVIDWENENAVSKAPNDWDFNPDQANYQEYWNNKCLPQVNELLEQYGDLCSLWFDMGGFDVQEEADHVRRIGELMALIRKKQPDAVVNSRVTAPECEYQLDWDIKTGHDNYMEPLYIKPYYWEGIATSNDNWGYSRNDNNTKSSKDLINQLCSVVSRGGNFLLNITLDHNGRIPQSLVRLLSEIGQWMQVNQEAVIDTEATPLQTGFNWGVVTHRPATNKLYLHVQRQPEQNVICLHSLNNRIKQVRLLDNQIKGHVSYLQKTHTDTGITASTLNLQLGHNYDRMPLVIELEYDGELDINPIVHQDRLAKVRLDTLNIAHFDPEKLTYRWTFQIQSPGRFALDLVSLETMHHKDPQWVHNGKTGRISCGGQSWEFELNLDKTDTNDAQVPWKNIHSRLGELHFPQAGEYTLEFSELPLAIDQSEKYGQDYINLEYLQLGPRLA
Regarding B1, in series [12], the Km was 6340 ± 480 µM, the Vmax is reported as 24.8±0.9 U mg^−1 protein and the turnover number (kcat) turned out to be 4.81 ± 1.8 s⁻¹.
